According to article PMC11496002 (Epilepsia, 2024):
Where two headings read alike, the source gives them in different places.

Tests used:
[1] = Plasma and brain pharmacokinetics after intraperitoneal administration; conditions: for Brain/Plasma ratio AUC0-inf / Brain/Plasma ratio Cmax: assumes brain density 1 g/ml
Core body temperature = assay type: in vivo, mouse; conditions: all mice treated with CBD (with CLB + VPA) ip
[2] = Monitoring for sedation via physical observation; assay type: in vivo, mouse; conditions: all mice treated with CBD (70-150 mg/kg with CLB 5 + VPA 75 mg/kg ip)
[3] = system: hyperthermia-induced seizures in Scn1a^A1783V/WT mice; conditions: cited from earlier work
in vivo = conditions: Scn1a^WT/WT (wild-type), mouse, ip
[4] = mouse, in vivo
[5] = comedication with CLB; cited from earlier work
[6] = Single Drug, each alone ip, Scn1a^WT/WT mice
[7] = Triple (CLB+VPA+CBD) ip, Scn1a^WT/WT mice
[8] = Double (CLB+VPA) ip, Scn1a^WT/WT mice

C=C(C)[C@@H]1CCC(CO)=C[C@H]1c1c(O)cc(CCCCC)cc1O [7-OH-CBD, 7-hydroxycannabidiol]
Brain/Plasma ratio AUC0-inf [1, 6]: 0.82 | Brain/Plasma ratio Cmax [1, 6]: 0.93 | Brain/Plasma ratio AUC0-inf [1, 7]: 1.02 | Brain/Plasma ratio Cmax [1, 7]: 0.86

C=C(C)[C@@H]1CCC(C)=C[C@H]1c1c(O)cc(CCCCC)cc1O [CBD, cannabidiol]
Increase in brain exposure, CBD+CLB+VPA compared to CBD monotherapy ([1]; mouse, in vivo): two-fold | Post-injection core body temperature compared to baseline pre-injection (Core body temperature): reduction in post-injection core body temperatures | Signs of sedation [2]: No signs of sedation

CN1C(=O)CC(=O)N(c2ccccc2)c2cc(Cl)ccc21 [CLB, clobazam]
Exposure (AUC0-inf), triple-drug therapy (CLB+VPA+STP) vs CLB alone or CLB + VPA ([1]; Scn1a^WT/WT mice): substantially higher | CLB stand-alone PK in Scn1a^A1783V/WT vs Scn1a^WT/WT mice ([1]; Table S2): comparable PK profile | Exposure when adding CBD to CLB+VPA vs adding STP to CLB+VPA ([1]; mouse, in vivo): higher | Brain Cmax, triple-drug therapy (CLB+VPA+STP) vs CLB alone and CLB + VPA ([1]; p<0.0001 vs CLB alone, p=0.0003 vs CLB + VPA): significantly higher

CCNC(C)Cc1cccc(C(F)(F)F)c1 (stereo not drawn) [FFA, fenfluramine]
Protection against hyperthermia-induced seizures ([3]; FFA 25 mg/kg alone): insufficient to prevent hyperthermia-induced seizures

C[C@H]1CNCCc2ccc(Cl)cc21 [LCS, Lorcaserin]
Protection against hyperthermia-induced seizures ([3]; LCS 10 mg/kg alone): insufficient to prevent hyperthermia-induced seizures

O=C1CC(=O)N(c2ccccc2)c2cc(Cl)ccc2N1 [N-CLB, N-desmethylclobazam]
Brain/Plasma ratio AUC0-inf [1, 8]: 1.42 | Brain/Plasma ratio Cmax [1, 8]: 1.39 | Brain/Plasma ratio AUC0-inf [1, 6]: 2.1 | Brain/Plasma ratio Cmax [1, 6]: 1.25 | Brain/Plasma ratio AUC0-inf [1, 7]: 1.56 | Brain/Plasma ratio Cmax [1, 7]: 1.2 | Brain/Plasma ratio AUC0-inf ([1]; Triple (CLB+VPA+STP) ip, Scn1a^WT/WT mice): 2.29 | Exposure when adding CBD to CLB+VPA vs adding STP to CLB+VPA ([1]; mouse, in vivo): higher | Fold increase of concentrations in triple-drug therapies compared to CLB+VPA ([1]; mouse, in vivo): > 2 fold

CC(C)(C)C(O)/C=C/c1ccc2c(c1)OCO2 (stereo not drawn) [STP, stiripentol]
Protection against hyperthermia-induced seizures ([3]; STP 100 mg/kg alone): ineffective | half-life (in vivo): 52.1 min | Brain Cmax, CLB + VPA + STP cohort vs STP alone [4]: not different | Increase of STP concentration by CLB [5]: 37%

CCCC(CCC)C(=O)O [VPA, sodium valproate]
Brain exposure in CBD+CLB+VPA compared to CLB+VPA or VPA-alone [4]: increase
